Results from US12365655B2, “Compounds” (CTXT PTY LTD, priority 2018, dated 2025).

How the values were obtained:
[1] = test system: acetylation of the histone H3 Lysine 14 marker in U2OS cells; assay: Histone H3 Lysine 14 Acetylation Biomarker Assay; type: cell-based; conditions: Homo sapiens, serum free medium, 24 hours incubation, read-out: IC50, inhibition of histone H3 Lysine 14 acetylation
Procedure: Compounds were tested for their ability to inhibit acetylation of the histone H3 Lysine 14 marker in the following assay:
The cell line U2OS was seeded at a density of 3,000 cells per well in 384-well optical quality tissue culture plates in RPMI medium supplemented with 10% foetal bovine serum and 10 mM Hepes. The cells were allowed to adhere for 24 hours under standard culture conditions (37 degree Celsius, 5% CO2). At the end of this period the cells were washed with serum free medium. […] After incubation for 24 hours, the cells were fixed with 4% formaldehyde in PBS for 15 minutes at room temperature, washed with phosphate buffer saline and blocked with blocking buffer containing 0.2% TritonX100 and 2% BSA. Anti-H3K14ac specific antibody (Cell Signalling Technologies) in blocking buffer was added and incubated overnight at 4 degree Celsius. After washing, a secondary antibody labelled with AlexaFluor 488 dye (ThermoFisher) and Hoechst 33342 (1 μg/mL, Life Technologies) were added for 2 hours incubation at room temperature. Plates were washed and read on a PerkinElmer Opera HCS high content imaging platform. Using a Columbus image analysis pipeline, individual nuclei were located by Hoechst 33342 stain and the acetylation level was calculated from the AlexaFluor 488-related intensity in the same area.

[2] = target: HBO-KAT7 (Homo sapiens, UniProt O95251); assay: Acetyltransferase biochemical assay (AlphaScreen), KAT7
[3] = target: T1, MOF-KAT8 (Homo sapiens, UniProt Q9H7Z6); assay: biochemical
T1 sequence (Q9H7Z6 with tags, fused parts or gaps): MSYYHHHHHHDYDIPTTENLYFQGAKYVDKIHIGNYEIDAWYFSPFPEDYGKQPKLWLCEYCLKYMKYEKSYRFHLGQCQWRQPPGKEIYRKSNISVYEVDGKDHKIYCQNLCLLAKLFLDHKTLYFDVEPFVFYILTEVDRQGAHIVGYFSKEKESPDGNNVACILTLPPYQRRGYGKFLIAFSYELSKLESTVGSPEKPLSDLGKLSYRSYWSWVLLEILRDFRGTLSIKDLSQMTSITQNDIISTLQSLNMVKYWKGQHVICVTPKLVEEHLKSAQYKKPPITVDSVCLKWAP

[4] = target: TIP60-KAT5 (Homo sapiens, UniProt Q92993); assay: Acetyltransferase biochemical assay (AlphaScreen), KAT5
[5] = target: T2, QKF-KAT6B (Homo sapiens, UniProt Q8WYB5); assay: Acetyltransferase biochemical assay (AlphaScreen), KAT6B; conditions: 8 nM KAT6B, 1 μM AcCoA, 100 nM histone H3.1
T2 construct: purchased SignalChem K315-381BG
From the text: KAT6B was obtained from SignalChem, catalog ID: K315-381BG

[6] = test system: acetylation of the histone H3K23 marker in U2OS cells; assay: Histone H3 Lysine 23 Acetylation Biomarker Assay; type: cell-based; conditions: Homo sapiens, 24 hours incubation, read-out: IC50, inhibition of histone H3K23 acetylation
Procedure: Compounds were tested for their ability to inhibit acetylation of the histone H3K23 marker in the following assay:
The cell line U2OS was seeded at a density of 9,000 cells per well in 96 well optical quality tissue culture plates in RPMI medium and 10% foetal bovine serum, and allowed to adhere for 24 hours under standard culture conditions (37 degree Celsius, 5% CO2). At the end of this period the medium was aspirated. […] After incubation for 24 hours, the cells were fixed with 3.7% formaldehyde in PBS for 20 minutes at room temperature, washed (5×5 minutes) with phosphate buffer saline containing 0.1% Tween 20 and blocked with Odyssey blocking buffer (LI-COR, Lincoln, Nebr.) containing 0.1% TritonX100. Anti-H3K23ac specific antibody (Abcam ab177275) in Odyssey blocking buffer containing 0.1% Tween 20 was added and incubated for 16 hours at 4 degree Celsius. After washing (as above), a secondary antibody labelled with Alexa647 dye (LifeTechnologies) and Hoechst 33342 (1 μg/mL, SigmaAldrich) were added for 1 hour incubation. Plates were washed as previously and read on a PerkinElmer Phenix high content imaging platform. Using a Columbus image analysis pipeline, individual nuclei were located by Hoechst 33342 stain and the acetylation level was calculated from the Alexa647-related intensity in the same area.

[7] = target: MOZ-KAT6A (Homo sapiens, UniProt Q92794, A567V); assay: Acetyltransferase biochemical assay (AlphaScreen), KAT6A
[8] = test system: histone H2A.Z Lysine 7 acetylation marker in U2OS cells; assay: H2A.Z Lysine 7 Acetylation Biomarker Assay; type: cell-based; conditions: Homo sapiens, serum free medium, 24 hours incubation, read-out: IC50, inhibition of histone H2A.Z Lysine 7 acetylation
Procedure: Compounds were tested for their ability to inhibit the histone H2A.Z Lysine 7 acetylation marker in the following assay:
The cell line U2OS was seeded at a density of 3,000 cells per well in 384-well optical quality tissue culture plates in RPMI medium supplemented with 10% foetal bovine serum and 10 mM Hepes. The cells were allowed to adhere for 24 hours under standard culture conditions (37 degree Celsius, 5% CO2). At the end of this period the cells were washed with serum free medium. […] 2018, at 30 μM concentration. After incubation for 24 hours, the cells were fixed with 4% formaldehyde in PBS for 15 minutes at room temperature, washed with phosphate buffer saline and blocked with blocking buffer containing 0.2% TritonX100 and 2% BSA. Anti-H2A.ZK7ac specific antibody (Abcam) in blocking buffer was added and incubated overnight at 4 degree Celsius. After washing, a secondary antibody labelled with AlexaFluor 488 dye (ThermoFisher) and Hoechst 33342 (1 μg/mL, Life Technologies) were added for 2 hours incubation at room temperature. Plates were washed and read on a PerkinElmer Opera HCS high content imaging platform. Using a Columbus image analysis pipeline, individual nuclei were located by Hoechst 33342 stain and the acetylation level was calculated from the AlexaFluor 488-related intensity in the same area.

Sequence of HBO-KAT7 (O95251 with tags, fused parts or gaps): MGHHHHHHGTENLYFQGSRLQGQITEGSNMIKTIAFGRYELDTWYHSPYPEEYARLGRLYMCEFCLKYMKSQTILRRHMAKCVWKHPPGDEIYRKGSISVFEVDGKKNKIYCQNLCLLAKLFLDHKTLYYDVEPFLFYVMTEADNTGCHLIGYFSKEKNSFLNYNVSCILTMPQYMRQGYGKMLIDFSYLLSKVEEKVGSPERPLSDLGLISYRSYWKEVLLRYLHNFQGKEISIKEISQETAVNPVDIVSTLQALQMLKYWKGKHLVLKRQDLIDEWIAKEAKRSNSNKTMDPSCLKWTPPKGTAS
Sequence of MOZ-KAT6A (Q92794 with tags, fused parts or gaps A567V): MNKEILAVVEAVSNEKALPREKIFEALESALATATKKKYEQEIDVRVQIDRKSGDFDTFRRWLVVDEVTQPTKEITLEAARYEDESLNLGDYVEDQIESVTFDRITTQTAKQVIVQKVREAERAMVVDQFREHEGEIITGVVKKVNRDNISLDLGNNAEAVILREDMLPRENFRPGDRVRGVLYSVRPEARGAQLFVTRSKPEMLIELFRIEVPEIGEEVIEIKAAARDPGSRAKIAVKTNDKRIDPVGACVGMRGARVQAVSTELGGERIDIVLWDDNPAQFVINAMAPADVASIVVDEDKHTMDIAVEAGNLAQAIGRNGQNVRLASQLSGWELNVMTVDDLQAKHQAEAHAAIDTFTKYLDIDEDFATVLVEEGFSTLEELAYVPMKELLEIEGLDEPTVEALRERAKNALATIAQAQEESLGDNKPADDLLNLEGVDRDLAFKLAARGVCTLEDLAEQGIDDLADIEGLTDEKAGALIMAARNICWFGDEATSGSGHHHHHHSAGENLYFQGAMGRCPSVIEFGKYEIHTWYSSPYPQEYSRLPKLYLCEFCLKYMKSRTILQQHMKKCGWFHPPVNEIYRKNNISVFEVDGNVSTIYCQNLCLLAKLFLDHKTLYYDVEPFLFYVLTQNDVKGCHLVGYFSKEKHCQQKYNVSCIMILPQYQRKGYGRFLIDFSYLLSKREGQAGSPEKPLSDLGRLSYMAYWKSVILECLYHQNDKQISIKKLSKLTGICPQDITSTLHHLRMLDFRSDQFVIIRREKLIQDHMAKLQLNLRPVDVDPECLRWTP
Sequence of TIP60-KAT5 (Q92993 with tags, fused parts or gaps isoform Q92993-2): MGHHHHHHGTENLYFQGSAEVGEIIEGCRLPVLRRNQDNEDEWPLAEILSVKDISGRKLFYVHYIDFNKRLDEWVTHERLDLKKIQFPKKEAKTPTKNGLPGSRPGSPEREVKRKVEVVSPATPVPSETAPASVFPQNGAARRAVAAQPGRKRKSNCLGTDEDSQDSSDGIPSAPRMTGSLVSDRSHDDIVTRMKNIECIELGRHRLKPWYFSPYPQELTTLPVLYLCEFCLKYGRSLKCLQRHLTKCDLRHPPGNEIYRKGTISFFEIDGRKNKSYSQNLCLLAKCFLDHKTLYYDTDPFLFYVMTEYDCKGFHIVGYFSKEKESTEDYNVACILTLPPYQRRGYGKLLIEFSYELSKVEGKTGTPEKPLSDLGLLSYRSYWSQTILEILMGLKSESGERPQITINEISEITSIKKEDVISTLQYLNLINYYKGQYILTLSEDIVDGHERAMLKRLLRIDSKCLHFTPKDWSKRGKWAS
T2 sequence (Q8WYB5 whole entry): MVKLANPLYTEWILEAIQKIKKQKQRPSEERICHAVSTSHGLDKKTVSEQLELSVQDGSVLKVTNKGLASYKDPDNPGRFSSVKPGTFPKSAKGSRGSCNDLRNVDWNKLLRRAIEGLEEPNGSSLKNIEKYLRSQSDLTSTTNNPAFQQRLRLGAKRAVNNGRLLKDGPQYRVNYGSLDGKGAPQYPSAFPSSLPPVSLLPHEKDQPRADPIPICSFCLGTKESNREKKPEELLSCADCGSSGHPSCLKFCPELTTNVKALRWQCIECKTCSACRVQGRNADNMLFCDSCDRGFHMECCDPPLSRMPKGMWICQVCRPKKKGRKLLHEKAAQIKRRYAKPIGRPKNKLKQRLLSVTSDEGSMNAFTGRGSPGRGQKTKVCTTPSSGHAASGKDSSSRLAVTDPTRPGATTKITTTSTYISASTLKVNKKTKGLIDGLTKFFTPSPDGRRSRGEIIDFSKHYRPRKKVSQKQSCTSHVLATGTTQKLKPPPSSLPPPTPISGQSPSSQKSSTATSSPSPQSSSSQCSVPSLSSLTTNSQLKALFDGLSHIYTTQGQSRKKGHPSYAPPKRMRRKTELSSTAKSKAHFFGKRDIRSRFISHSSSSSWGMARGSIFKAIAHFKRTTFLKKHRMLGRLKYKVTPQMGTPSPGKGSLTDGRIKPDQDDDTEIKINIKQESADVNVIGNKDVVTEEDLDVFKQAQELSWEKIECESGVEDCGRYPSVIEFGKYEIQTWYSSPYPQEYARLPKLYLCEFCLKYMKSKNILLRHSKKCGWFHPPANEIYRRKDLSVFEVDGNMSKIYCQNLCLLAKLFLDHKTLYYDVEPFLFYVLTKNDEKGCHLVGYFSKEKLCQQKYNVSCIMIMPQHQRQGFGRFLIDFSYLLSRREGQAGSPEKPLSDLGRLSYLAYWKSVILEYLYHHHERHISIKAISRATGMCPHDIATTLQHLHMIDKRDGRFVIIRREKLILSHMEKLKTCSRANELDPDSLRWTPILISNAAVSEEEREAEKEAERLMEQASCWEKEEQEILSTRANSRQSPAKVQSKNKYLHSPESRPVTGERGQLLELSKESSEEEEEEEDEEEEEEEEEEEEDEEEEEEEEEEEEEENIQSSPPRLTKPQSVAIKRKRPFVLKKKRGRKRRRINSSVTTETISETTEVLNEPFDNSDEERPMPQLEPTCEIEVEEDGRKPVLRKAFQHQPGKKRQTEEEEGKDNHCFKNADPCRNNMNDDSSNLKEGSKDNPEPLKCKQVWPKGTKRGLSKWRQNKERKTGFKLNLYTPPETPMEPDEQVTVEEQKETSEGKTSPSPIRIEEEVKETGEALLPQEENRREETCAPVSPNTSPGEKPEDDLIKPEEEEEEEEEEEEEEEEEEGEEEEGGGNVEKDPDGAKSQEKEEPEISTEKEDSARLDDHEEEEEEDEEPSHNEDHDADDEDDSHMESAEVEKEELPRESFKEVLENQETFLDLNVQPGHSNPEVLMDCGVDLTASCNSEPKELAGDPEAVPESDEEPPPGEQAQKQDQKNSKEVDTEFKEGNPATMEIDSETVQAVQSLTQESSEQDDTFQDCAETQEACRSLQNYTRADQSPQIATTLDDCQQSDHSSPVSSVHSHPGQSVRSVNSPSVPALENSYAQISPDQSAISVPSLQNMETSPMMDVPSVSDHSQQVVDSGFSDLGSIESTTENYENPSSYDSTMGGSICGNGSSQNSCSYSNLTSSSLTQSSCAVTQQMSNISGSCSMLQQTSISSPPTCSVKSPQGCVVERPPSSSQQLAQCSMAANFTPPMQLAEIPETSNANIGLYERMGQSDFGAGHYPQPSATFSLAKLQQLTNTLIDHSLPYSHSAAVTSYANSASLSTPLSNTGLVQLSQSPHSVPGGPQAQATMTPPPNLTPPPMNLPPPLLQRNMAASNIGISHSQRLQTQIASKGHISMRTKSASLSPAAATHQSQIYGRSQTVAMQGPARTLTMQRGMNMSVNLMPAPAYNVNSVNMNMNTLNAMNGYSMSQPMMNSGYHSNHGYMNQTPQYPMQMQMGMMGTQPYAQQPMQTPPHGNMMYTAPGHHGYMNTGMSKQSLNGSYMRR

Compound | IC50 [1] | IC50 [2] | IC50 [3] | IC50 [4] | IC50 [5] | IC50 [6] | IC50 [7] | IC50 [8]
COc1cccc2onc(NS(=O)(=O)c3cccc4cc(C)cnc34)c12 [Example 73, N-(4-methoxybenzo[d]isoxazol-3-yl)-3-methyl quinoline-8-sulfonamide] | 12.5 µM | 0.508 µM | 3.46 µM | 2.16 µM | 4.05 µM | > 10 µM | 4.55 µM | 36.7 µM
COc1cc(-c2ccccc2)cc(OC)c1S(=O)(=O)Nc1noc2cccc(OC)c12 [Example 95, 3,5-Dimethoxy-N-(4-methoxybenzo[d]isoxazol-3-yl)-[1,1-biphenyl]-4-sulfonamide] | 9.09 µM | 0.754 µM | 6.45 µM | 14 µM | 1.64 µM | > 10 µM | 0.43 µM | > 40 µM
COc1cccc(OC)c1S(=O)(=O)Nc1noc2cc(-c3ncco3)cc(OC)c12 [Example 144, 2,6-Dimethoxy-N-(4-methoxy-6-(oxazol-2-yl)benzo[d]isoxazol-3-yl)benzenesulfonamide] | 2.95 µM | 0.286 µM |  | 11.5 µM | 0.057 µM | 0.128 µM | 0.261 µM | 18.8 µM
COc1cccc(OC)c1S(=O)(=O)Nc1noc2cc(-c3ccccn3)cc(OC)c12 [Example 146, 2,6-Dimethoxy-N-(4-methoxy-6-(pyridin-2-yl)benzo[d]isoxazol-3-yl)benzenesulfonamide] | 2.3 µM | 0.511 µM |  | 22 µM | 0.291 µM | 0.045 µM | 0.153 µM | 15.1 µM
COc1cccc(OC)c1S(=O)(=O)Nc1noc2cc(-c3ncco3)ccc12 [Example 147, 2,6-Dimethoxy-N-(6-(oxazol-2-yl)benzo[d]isoxazol-3-yl)benzenesulfonamide] | > 40 µM | > 125 µM |  | > 125 µM | > 125 µM | > 10 µM | 93.6 µM | > 40 µM
COCc1cc(OC)c2c(NS(=O)(=O)c3ccc(OC)c4cccnc34)noc2c1 [Example 162, 5-methoxy-N-(4-methoxy-6-(methoxymethyl)benzo[d]isoxazol-3-yl)quinoline-8-sulfonamide] | 1.53 µM | 0.969 µM | 10.6 µM | 14 µM | 0.18 µM | 0.144 µM | 0.147 µM | 29.5 µM
COCc1cc2onc(NS(=O)(=O)c3ccc(OC)cc3OC)c2cc1C [Example 166, 2,4-dimethoxy-N-(6-(methoxymethyl)-5-methylbenzo[d]isoxazol-3-yl)benzenesulfonamide] | 3.69 µM | 0.328 µM | 2.92 µM | 3.09 µM | 0.227 µM | 0.398 µM | 0.123 µM | 33.3 µM
CCOCc1cc(OC)c2c(NS(=O)(=O)c3c(OC)cccc3OC)noc2c1 [Example 172] | 1.45 µM | 0.426 µM |  | 9.07 µM | 0.042 µM | 0.014 µM | 0.037 µM | 29.2 µM
COCc1cc(OC)c2c(NS(=O)(=O)c3c(OC)cccc3OC)noc2c1 [Example 173, 2,6-Dimethoxy-N-(4-methoxy-6-(methoxymethyl)benzo[d]isoxazol-3-yl)benzenesulfonamide] | 0.533 µM | 0.169 µM | 3.52 µM | 4.05 µM | 0.04 µM | 0.02 µM | 0.015 µM | 26.2 µM
COc1cccc(OC)c1S(=O)(=O)Nc1noc2cc(-c3ccccc3)cc(OC)c12 [Example 174, 2,6-Dimethoxy-N-(4-methoxy-6-phenylbenzo[d]isoxazol-3-yl)benzenesulfonamide] | 0.068 µM | 0.031 µM |  | 1.83 µM | 0.018 µM | 0.017 µM | 0.013 µM | 1.54 µM
COc1ccccc1-c1cc(OC)c2c(NS(=O)(=O)c3c(OC)cccc3OC)noc2c1 [Example 176, 2,6-Dimethoxy-N-(4-methoxy-6-(2-methoxyphenyl)benzo[d]isoxazol-3-yl)benzenesulfonamide] | 1.07 µM | 0.138 µM |  | 5.67 µM | 0.121 µM | 0.685 µM | 0.03 µM | 7.61 µM
COc1cccc(-c2cc(OC)c3c(NS(=O)(=O)c4c(OC)cccc4OC)noc3c2)c1 [Example 177, 2,6-Dimethoxy-N-(4-methoxy-6-(3-methoxyphenyl)benzo[d]isoxazol-3-yl)benzenesulfonamide] | 0.135 µM | 0.021 µM |  | 7.08 µM | 0.092 µM | 1.49 µM | 0.127 µM | 1.09 µM
CCc1ccc(OC)c(S(=O)(=O)Nc2noc3c(-c4ccccc4)cccc23)c1 [Example 178, 5-Ethyl-2-methoxy-N-(7-phenylbenzo[d]isoxazol-3-yl)benzenesulfonamide] | 3.07 µM | 0.482 µM | 0.77 µM | 7.54 µM | 2.46 µM | > 10 µM | 1.44 µM | 5.59 µM
